Laboratory results from patent US20180246095A1, “COMPOSITIONS AND METHODS FOR DIAGNOSING AND TREATING LYME DISEASE” (priority 2015, published 2018).

System: B. burgdorferi B31
Test: RNA-Seq gene expression profile of B. burgdorferi persisters that survived antibiotic treatment, compared with drug free control
Type: cell-based, Borrelia burgdorferi
Details: 50 μg/ml antibiotic for 6 days, vs drug free control
Method: RNA Sequencing (RNA-Seq) was performed to determine the gene expression profile of B. burgdorferi persisters that survived antibiotic treatment using next generation sequencing to shed light on the mechanisms of B. burgdorferi persistence. B. burgdorferi B31 cultures were grown for 5 days to 1×10^7 spirochetes/ml in BSK-H medium followed by treatment with 50 μg/ml doxycycline or 50 μg/ml amoxicillin for 6 days. Triplicate biological samples were used for each group. The total RNA was extracted and ribosomal RNA was removed prior to preparation of cDNA libraries for Illumina sequencing. […] The RNA-Seq data was analyzed by BLAST analysis and mapped to KEGG pathways.

CC1(C)S[C@@H]2[C@H](NC(=O)[C@H](N)c3ccc(O)cc3)C(=O)N2[C@H]1C(=O)O [amoxicillin, reference compound]
genes down-regulated in treated group: 174 genes | genes upregulated in treated group: 342 genes | total genes differentially expressed between tolerant persisters and drug free group: 516 genes
